Results as given in publication PMC9867347, “An Acid-Sensitive Bone Targeting Delivery System Carrying Acacetin Prevents Osteoporosis in Ovariectomized Mice” (Pharmaceuticals, 2022).
Ends that are not written are not given here.

Legend:
[1] = tested on: LC3II; test: Western blotting, LC3II (autophagy); type: cell-based, C57BL/6J mice; conditions: BMMs, RANKL and M-CSF, 6 h
Procedure: (§1) RIPA lysate (50 × protease inhibitor, 50 × phosphatase inhibitor) was used to extract total protein from the cells. Then, 20 μg protein or protein marker per lane (PageRuler ™ (ThermoFisher Scientific, Waltham, MA, USA) Prestained Protein Ladder 10kD-180KD or HiMark™ (ThermoFisher Scientific, Waltham, MA, USA) Pre-stained Protein Standard 31 kd-460 kd) was loaded onto an SDS gel (30% Acrylamide, 1.5 M Tris-HCl, 10% SDS, 10% Ammonium persulfate and TEMED) and subjected to electrophoresis and transferred to a polyvinylidene fluoride membrane. The membrane was blocked with 5% BSA for 4 h and incubated with the specific primary antibody overnight at 4 °C. Then, the membrane was incubated with a secondary antibody (IRDye) for 1 h at room temperature. Bio-Rad ChemiDoc MP imaging system (Bio-Rad Laboratories, Hercules, CA, USA) was used to visualize protein bands and ImageJ software was used to calculate relative protein expression based on grayscale blots.
(§2) Antibodies including p-AKT (Ser473; #4060), AKT (#4691), LC3A/B Antibody (#4108), p-mTOR (Ser2448; #5536), mTOR (#2983), c-Fos (#2250), NFATc1 (#8032), p-PI3K (#4228), PI3K (#4249), and GAPDH (#5174) were purchased from Cell Signalling Technology (Denver, MA, USA).

[2] = tested on: OVX mice; test: OVX mouse model of osteoporosis; type: in vivo, C57BL/6J mice; conditions: for anti-osteoporotic effects (OVX-induced bone loss; BMD and BV/TV, micro-CT of tibia): i.p. 5 mg/kg/3 day for 5 weeks
[3] = tested on: BMMs stimulated with RANKL and M-CSF; test: Bone resorption assay (Osteo Assay Surface plate); type: cell-based, C57BL/6J mice
Procedure: In brief, the hind limbs of C57BL/6J mice were used to isolate bone marrow cells and cultured in α-MEM containing 10% FBS and 1% penicillin-streptomycin for one day to generate BMMs as described previously; 25 ng/mL M-CSF (416-ML-010/CF, R&D Systems, Minneapolis, MN, USA) and 50 ng/mL RANKL (462-TR-010/CF, R&D Systems, Minneapolis, MN, USA) were used for the preparation of osteoclasts.
Assays for bone resorption were performed using Corning Osteo Assay Surface plate (Sigma-Aldrich, Hongkong, China). We analyzed bone resorption pits with a light microscope and quantified pits area using Image J software (NIH, Bethesda, MD, USA).

[4] = tested on: c-Fos and NFATc1; test: Western blotting, c-Fos and NFATc1; type: cell-based, C57BL/6J mice; conditions: BMMs, RANKL and M-CSF, 3 days
Procedure: as §1, §2

[5] = tested on: BMMs stimulated with RANKL and M-CSF; test: TRAP staining, osteoclast differentiation; type: cell-based, C57BL/6J mice; conditions: 7 days
Procedure: In brief, the hind limbs of C57BL/6J mice were used to isolate bone marrow cells and cultured in α-MEM containing 10% FBS and 1% penicillin-streptomycin for one day to generate BMMs as described previously; 25 ng/mL […] Systems, Minneapolis, MN, USA) and 50 ng/mL […] Systems, Minneapolis, MN, USA) were used for the preparation of osteoclasts. […] TRAP-positive multinucleated osteoclasts (≥3 nuclei) were counted using a TRAP kit (Zhejiang Zhuoteng Biological, Shaoxing, China) according to the manufacturer's instructions. BMMs were induced by RANKL (50 ng/mL) and M-CSF (25 ng/mL) in the presence of acacetin (25 μM) and rapamycin (50 nmol/L) for 7 days. TRAP-positive multinucleated osteoclasts (≥3 nuclei) were counted.

[6] = tested on: mRNA expression of TRAP, NFATc1, and CTSK; test: RT-PCR of osteoclast genes; type: cell-based, C57BL/6J mice; conditions: BMMs, RANKL and M-CSF, 12.5, 25 μM, 3 days, n = 3
Procedure: The total RNA was extracted from cells or tissues using TRIzol reagent (Thermo Fisher Scientific, Waltham, MA, USA) according to the manufacturer’s instructions. PrimeScript^TM RT Master Mix (RR036Q, Takara, San Jose, CA, USA) was used to reverse transcribe 1 μg of total RNA extracted into complementary DNA (cDNA) for subsequent RT-PCR reactions using qTOWER real-time PCR thermal cycler (Analytik Jena, Jena, Germany).

[7] = tested on: PI3K/AKT/mTOR pathway; test: Western blotting, PI3K/AKT/mTOR phosphorylation; type: cell-based, C57BL/6J mice; conditions: BMMs, RANKL and M-CSF, acacetin 25 μM, 6 h, n = 3
Procedure: as §1, §2

[8] = plasma, after intravenous administration; cited from earlier work
Description: (§3) Osteoporosis following the estrogen withdrawal of menopause is a serious global clinical problem with a significant increase in the risk of fractures. Supplementation of estrogen is not recommended for the long-term treatment of postmenopausal bone loss because of the increased risk of breast cancers and cardiovascular events. Pure compounds isolated from natural products are emerging as potential therapeutics for postmenopausal osteoporosis. Acacetin is a di-hydroxy and mono-methoxy flavone widely distributed in various plants including the Acacia tree, black locust, and ...

[9] = tested on: ovariectomized (OVX) mice; conditions: 20 mg/kg/day for 8 weeks; ref 11 (Lin et al.); cited from earlier work
Description: as §3

[10] = Hydroxyapatite (HA) binding assay; conditions: 800 μM, 4 mM sodium phosphate, 150 mM sodium chloride, pH 7.4, 15 mg HA, 37 °C, 0-80 min, HPLC
Procedure: Acacetin-EMCH-D6 and acacetin were dissolved, respectively, in a buffer containing 4 mM sodium phosphate and 150 mM sodium chloride (pH = 7.4), to a final concentration of 800 μM; 15 mg of HA was added and incubated in a 37 °C water bath; 20 μL aliquots were taken after 0, 10, 20, 40, and 80 min and quantified by HPLC.

[11] = tested on: BMMs; test: Cytotoxicity assay (CCK-8); type: cell-based, C57BL/6J mice; conditions: 48 h and 96 h, CCK-8, n = 6
Procedure: In brief, the hind limbs of C57BL/6J mice were used to isolate bone marrow cells and cultured in α-MEM containing 10% FBS and 1% penicillin-streptomycin for one day to generate BMMs as described previously; 25 ng/mL […] Systems, Minneapolis, MN, USA) and 50 ng/mL […] Systems, Minneapolis, MN, USA) were used for the preparation of osteoclasts. […] The medium was changed every 2 days. After 48 h and 96 h of culture, CCK8 reagent (10 μL/well, Dojindo, Kumamoto, Japan) was added to each well. Then, the cells were incubated in darkness at 37 °C for 2 h. The absorbance was recorded using a microplate reader (Thermo Fisher Scientific, Waltham, MA, USA) at 450 nm.

[12] = statement of the design section, reference not given; cited from earlier work
Description: The next step is the identification of bone-targeting peptides. Bone tissue, as a special connective tissue, consists of a variety of cells and intercellular bone matrix, with high inorganic salt content which is mainly composed of HA. In recent years, more and more peptide sequences with excellent bone-targeting ability have been discovered. Compared with bone-targeting small molecules, these peptides have more specific mechanisms, high affinity and low side effects. Considering that acacetin has an excellent inhibitory effect on osteoclasts, we selected […] ...

[13] = acacetin 25 μM and rapamycin 50 nmol/L
[14] = Acacetin-EMCH-D6 17.5 μmol/kg and rapamycin 1 mg/kg i.p. every 3 days, 5 weeks, at least in part
[15] = Acacetin-EMCH-D6 17.5 μmol/kg and rapamycin 1 mg/kg i.p. every 3 days, 5 weeks, proximal tibia
[16] = i.p. 17.5 μmol/kg every 3 days for 5 weeks
[17] = i.p. 17.5 μmol/kg every 3 days for 5 weeks, n = 6

Compound: CO[C@H]1C[C@@H]2CC[C@@H](C)[C@@](O)(O2)C(=O)C(=O)N2CCCC[C@H]2C(=O)O[C@H]([C@H](C)C[C@@H]2CC[C@@H](O)[C@H](OC)C2)CC(=O)[C@H](C)/C=C(\C)[C@@H](O)[C@@H](OC)C(=O)[C@H](C)C[C@H](C)/C=C/C=C/C=C/1C [rapamycin]
- effect of rapamycin co-treatment on inhibition of LC3II protein levels by acacetin [1, 13]: abolished
- effect of rapamycin co-treatment on BMD augmentation by Acacetin-EMCH-D6 [2, 14]: reversed
- effect of rapamycin co-treatment on BV/TV augmentation by Acacetin-EMCH-D6 [2, 14]: reversed
- effect of rapamycin co-treatment on Tb.N augmentation by Acacetin-EMCH-D6 [2, 14]: reversed
- effect of rapamycin co-treatment on Tb.Sp reduction by Acacetin-EMCH-D6 [2, 14]: reversed
- effect of rapamycin co-treatment on reduction of LC3 dots by Acacetin-EMCH-D6 [2, 15]: partly reversed
- effect of rapamycin co-treatment on reduction of TRAP-positive osteoclasts by Acacetin-EMCH-D6 [2, 15]: partly reversed
- effect of rapamycin co-treatment on inhibition of bone resorption by acacetin ([3]; RANKL and M-CSF, acacetin 25 μM and rapamycin 50 nmol/L, 3 days): partly reversed
- effect of rapamycin co-treatment on downregulation of NFATc1 protein by acacetin [4, 13]: partially reversed
- effect of rapamycin co-treatment on downregulation of c-Fos protein by acacetin [4, 13]: partially reversed
- effect of rapamycin co-treatment on inhibition of osteoclast differentiation by acacetin (TRAP assay) ([5]; RANKL and M-CSF, acacetin 25 μM and rapamycin 50 nmol/L): partly reversed

Compound: COc1ccc(-c2cc(=O)c3c(O)cc(O)cc3o2)cc1 [acacetin]
- RANKL+M-CSF-induced increase of LC3II protein levels ([1]; acacetin 25 μM, n = 3): reversed
- BMD, proximal tibia and L5 vertebra (micro-CT), OVX-induced change [2, 16]: no significant effect
- BV/TV, proximal tibia and L5 vertebra (micro-CT), OVX-induced change [2, 16]: no significant effect
- Tb.N, proximal tibia and L5 vertebra (micro-CT), OVX-induced change [2, 16]: no significant effect
- Tb.Sp, proximal tibia and L5 vertebra (micro-CT), OVX-induced change [2, 16]: no significant effect
- number of TRAP-positive cells, proximal tibia (OVX-induced increase) [2, 16]: did not affect the histological changes
- plasma CTX-1 levels [2, 17]: no significant effect
- trabecular density and thickness, proximal tibia (H&E staining) [2, 17]: did not affect the histological changes
- anti-osteoporotic effects (OVX-induced bone loss; BMD and BV/TV, micro-CT of tibia) ([2]; n = 6, Figure S1, 5 mg/kg): did not observe its anti-osteoporotic effects
- anti-osteoporotic effects (OVX-induced bone loss; BMD and BV/TV, micro-CT of tibia) ([2]; n = 6, Figure S1, listed as Acacetin, 5 mg/kg): no effect on OVX-induced bone loss
- mRNA expression of CTSK [6]: suppressed
- mRNA expression of NFATc1 [6]: suppressed
- mRNA expression of TRAP [6]: suppressed
- area of bone resorption pits ([3]; RANKL 50 ng/mL and M-CSF 25 ng/mL, 12.5, 25 μM added for 3 days after immature osteoclasts formed, n = 3): significantly diminished
- protein expression of NFATc1 ([4]; acacetin 25 μM): downregulated
- protein expression of c-Fos ([4]; acacetin 25 μM): downregulated
- RANKL+M-CSF-induced reduction of AKT phosphorylation [7]: reversed
- RANKL+M-CSF-induced reduction of PI3K phosphorylation [7]: reversed
- RANKL+M-CSF-induced reduction of mTOR phosphorylation [7]: reversed
- terminal half-life [8]: 1.48 h
- bone loss in ovariectomized (OVX) mice [9]: protected against bone loss
- binding to hydroxyapatite (HA) [10]: very weak binding
- cell viability ([11]; dose more than 50 μM): reduced cell viability
- cell viability ([11]; dose of 6.25, 12.5, and 25 μM): did not affect cell viability
- number of TRAP-positive osteoclasts (nuclei ≥ 3) ([5]; RANKL 50 ng/mL and M-CSF 25 ng/mL, 12.5, 25 μM, n = 3): significantly diminished

Compound: DDDDDD [D6, medium-length polyaspartic acid, bone targeting peptide]
- HA affinity [12]: comparable to tetracycline and calcein
